Assays:
Format in all cases: biochemical
Details in all cases: ATP 100 μM
[1] = target: JAK1 (Homo sapiens (Human), UniProt P23458); experiment: Enzyme assay (Assay Example^a 1), JAK1
[2] = target: JAK2 (Homo sapiens (Human), UniProt O60674); experiment: Enzyme assay (Assay Example^a 1), JAK2
[3] = target: JAK3 (Homo sapiens (Human), UniProt P52333); experiment: Enzyme assay (Assay Example^a 1), JAK3
[4] = target: Tyk2 (Homo sapiens (Human), UniProt P29597); experiment: Enzyme assay (Assay Example^a 1), Tyk2
Tyk2, sequence (P29597 whole entry): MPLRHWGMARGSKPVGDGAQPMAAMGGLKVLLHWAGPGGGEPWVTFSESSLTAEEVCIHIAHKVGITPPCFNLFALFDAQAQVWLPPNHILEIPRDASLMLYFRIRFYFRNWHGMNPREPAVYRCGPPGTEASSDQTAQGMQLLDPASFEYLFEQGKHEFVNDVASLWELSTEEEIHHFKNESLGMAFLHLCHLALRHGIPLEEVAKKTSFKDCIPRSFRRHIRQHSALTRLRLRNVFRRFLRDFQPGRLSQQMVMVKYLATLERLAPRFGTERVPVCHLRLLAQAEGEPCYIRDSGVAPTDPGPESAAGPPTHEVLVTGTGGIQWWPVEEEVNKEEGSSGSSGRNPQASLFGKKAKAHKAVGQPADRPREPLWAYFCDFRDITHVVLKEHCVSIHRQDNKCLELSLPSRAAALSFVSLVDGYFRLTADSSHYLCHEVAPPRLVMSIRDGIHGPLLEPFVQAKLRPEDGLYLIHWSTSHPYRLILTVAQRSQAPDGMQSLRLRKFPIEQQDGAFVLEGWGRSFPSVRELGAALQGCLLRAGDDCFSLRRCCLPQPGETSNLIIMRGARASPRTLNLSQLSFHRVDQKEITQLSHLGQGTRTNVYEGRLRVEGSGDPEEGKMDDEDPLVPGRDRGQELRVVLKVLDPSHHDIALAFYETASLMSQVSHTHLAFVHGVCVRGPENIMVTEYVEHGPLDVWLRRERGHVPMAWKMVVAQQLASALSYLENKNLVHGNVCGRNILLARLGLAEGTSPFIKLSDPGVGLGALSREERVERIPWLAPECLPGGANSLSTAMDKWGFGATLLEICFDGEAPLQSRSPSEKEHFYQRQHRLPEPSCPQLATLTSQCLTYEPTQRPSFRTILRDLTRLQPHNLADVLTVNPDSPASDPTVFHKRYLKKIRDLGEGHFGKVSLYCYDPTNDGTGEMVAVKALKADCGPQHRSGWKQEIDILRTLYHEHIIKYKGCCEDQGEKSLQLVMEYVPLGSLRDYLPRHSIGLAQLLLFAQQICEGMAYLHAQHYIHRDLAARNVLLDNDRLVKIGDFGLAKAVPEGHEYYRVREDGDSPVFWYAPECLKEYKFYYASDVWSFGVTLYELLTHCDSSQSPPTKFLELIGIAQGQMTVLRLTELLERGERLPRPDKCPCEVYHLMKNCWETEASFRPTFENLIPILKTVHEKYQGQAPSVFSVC

JAK3, sequence (P52333 whole entry): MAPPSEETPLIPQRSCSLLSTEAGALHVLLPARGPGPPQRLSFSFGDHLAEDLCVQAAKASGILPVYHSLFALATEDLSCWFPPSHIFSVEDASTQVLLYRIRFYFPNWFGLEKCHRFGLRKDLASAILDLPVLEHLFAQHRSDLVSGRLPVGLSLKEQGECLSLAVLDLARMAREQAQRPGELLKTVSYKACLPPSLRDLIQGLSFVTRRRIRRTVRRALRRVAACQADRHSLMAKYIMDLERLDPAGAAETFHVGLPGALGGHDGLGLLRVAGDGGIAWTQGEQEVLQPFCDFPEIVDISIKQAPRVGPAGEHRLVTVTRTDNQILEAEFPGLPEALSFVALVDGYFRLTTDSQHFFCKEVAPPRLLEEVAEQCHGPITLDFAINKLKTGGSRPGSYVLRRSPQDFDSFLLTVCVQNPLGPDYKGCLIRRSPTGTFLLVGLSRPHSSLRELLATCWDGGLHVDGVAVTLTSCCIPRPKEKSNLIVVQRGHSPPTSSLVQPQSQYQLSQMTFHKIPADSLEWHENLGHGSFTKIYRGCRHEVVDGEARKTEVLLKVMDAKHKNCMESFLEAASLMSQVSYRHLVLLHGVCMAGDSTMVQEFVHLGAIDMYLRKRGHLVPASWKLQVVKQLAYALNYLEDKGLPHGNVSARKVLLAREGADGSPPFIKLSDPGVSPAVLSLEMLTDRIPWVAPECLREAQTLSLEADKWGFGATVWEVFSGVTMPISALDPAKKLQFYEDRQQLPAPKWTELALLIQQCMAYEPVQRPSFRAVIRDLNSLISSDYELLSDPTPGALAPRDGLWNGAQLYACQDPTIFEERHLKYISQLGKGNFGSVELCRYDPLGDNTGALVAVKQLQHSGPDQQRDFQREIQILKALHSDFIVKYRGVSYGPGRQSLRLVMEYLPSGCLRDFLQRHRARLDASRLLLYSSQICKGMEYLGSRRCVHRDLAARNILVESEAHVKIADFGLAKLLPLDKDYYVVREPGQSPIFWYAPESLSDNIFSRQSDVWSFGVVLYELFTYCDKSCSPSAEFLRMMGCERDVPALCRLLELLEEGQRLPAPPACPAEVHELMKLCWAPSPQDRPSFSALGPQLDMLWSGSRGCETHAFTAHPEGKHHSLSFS

Row | Structure (SMILES) | IC50 [1] [µM] | IC50 [2] [µM] | IC50 [3] [µM] | IC50 [4] [µM]
1 | CNC[C@H]1CC[C@H](c2nnn3cnc4[nH]ccc4c23)CC1 [compound 329, 1-[trans-4-(7H-pyrrolo[3,2-e][1,2,3]triazolo[1,5-c]pyrimidin-1-yl)cyclohexyl]-N-methylmethanamine] | 0.0048 | 0.029 | 0.8 | 0.21
2 | CCNC[C@H]1CC[C@H](c2nnn3cnc4[nH]ccc4c23)CC1 [compound 330, N-{[trans-4-(7H-pyrrolo[3,2-e][1,2,3]triazolo[1,5-c]pyrimidin-1-yl)cyclohexyl]methyl}ethanamine] | 0.0074 | 0.047 | > 1 | 0.14
3 | CC(C)NC[C@H]1CC[C@H](c2nnn3cnc4[nH]ccc4c23)CC1 [compound 331, N-{[trans-4-(7H-pyrrolo[3,2-e][1,2,3]triazolo[1,5-c]pyrimidin-1-yl)cyclohexyl]methyl}propan-2-amine] | 0.0088 | 0.054 | > 1 | 0.42
4 | CC(C)(C)NC[C@H]1CC[C@H](c2nnn3cnc4[nH]ccc4c23)CC1 [compound 332, N-{[trans-4-(7H-pyrrolo[3,2-e][1,2,3]triazolo[1,5-c]pyrimidin-1-yl)cyclohexyl]methyl}-2-methylpropan-2-amine] | 0.012 | 0.045 | > 1 | 0.49
5 | C#CCNC[C@H]1CC[C@H](c2nnn3cnc4[nH]ccc4c23)CC1 [compound 333, N-{[trans-4-(7H-pyrrolo[3,2-e][1,2,3]triazolo[1,5-c]pyrimidin-1-yl)cyclohexyl]methyl}prop-2-yn-1-amine] | 0.0085 | 0.044 | > 1 | 0.27
6 | c1cc2c(ncn3nnc([C@H]4CC[C@H](CN5CCC(N6CCOCC6)CC5)CC4)c23)[nH]1 [compound 334, 4-(1-{[trans-4-(7H-pyrrolo[3,2-e][1,2,3]triazolo[1,5-c]pyrimidin-1-yl)cyclohexyl]methyl}piperidin-4-yl)morpholine] | 0.064 | > 1 | > 1 | > 1
7 | CC(C)(C)OC(=O)N1CCC(CNC[C@H]2CC[C@H](c3nnn4cnc5[nH]ccc5c34)CC2)CC1 [compound 335, tert-butyl 4-[({[trans-4-(7H-pyrrolo[3,2-e][1,2,3]triazolo[1,5-c]pyrimidin-1-yl)cyclohexyl]methyl}amino)methyl]piperidine-1-carboxylate] | 0.029 | 0.29 | > 1 | 0.71
8 | CC(C)(C)OC(=O)NCC1CCN(C[C@H]2CC[C@H](c3nnn4cnc5[nH]ccc5c34)CC2)CC1 [compound 336, tert-butyl [(1-{[trans-4-(7H-pyrrolo[3,2-e][1,2,3]triazolo[1,5-c]pyrimidin-1-yl)cyclohexyl]methyl}piperidin-4-yl)methyl]carbamate] | 0.025 | 0.37 | > 1 | > 1
9 | CC(C)(C)OC(=O)N1CC[C@H](NC[C@H]2CC[C@H](c3nnn4cnc5[nH]ccc5c34)CC2)C1 [compound 337, (S)-tert-butyl 3-({[trans-4-(7H-pyrrolo[3,2-e][1,2,3]triazolo[1,5-c]pyrimidin-1-yl)cyclohexyl]methyl}amino)pyrrolidine-1-carboxylate] | 0.029 | 0.34 | > 1 | 0.51
10 | FC1CN(C[C@H]2CC[C@H](c3nnn4cnc5[nH]ccc5c34)CC2)C1 [compound 338, 1-{trans-4-[(3-fluoroazetidin-1-yl)methyl]cyclohexyl}-7H-pyrrolo[3,2-e][1,2,3]triazolo[1,5-c]pyrimidine] | 0.0069 | 0.06 | 0.48 | 0.59
11 | FC1(F)CN(C[C@H]2CC[C@H](c3nnn4cnc5[nH]ccc5c34)CC2)C1 [compound 339, 1-{trans-4-[(3,3-difluoroazetidin-1-yl)methyl]cyclohexyl}-7H-pyrrolo[3,2-e][1,2,3]triazolo[1,5-c]pyrimidine] | 0.018 | 0.052 | 0.26 | 0.86
12 | CN(C)[C@@H]1CCN(C[C@H]2CC[C@H](c3nnn4cnc5[nH]ccc5c34)CC2)C1 [compound 340, (R)-1-{[trans-4-(7H-pyrrolo[3,2-e][1,2,3]triazolo[1,5-c]pyrimidin-1-yl)cyclohexyl]methyl}-N,N-dimethylpyrrolidin-3-amine] | 0.021 | 0.23 | > 1 | > 1
13 | O=C(CNC[C@H]1CC[C@H](c2nnn3cnc4[nH]ccc4c23)CC1)NCC(F)(F)F [compound 341, 2-({[trans-4-(7H-pyrrolo[3,2-e][1,2,3]triazolo[1,5-c]pyrimidin-1-yl)cyclohexyl]methyl}amino)-N-(2,2,2-trifluoroethyl)acetamide] | 0.01 | 0.059 | 0.31 | 0.32
14 | FC(F)(F)C(F)(F)CNC[C@H]1CC[C@H](c2nnn3cnc4[nH]ccc4c23)CC1 [compound 342, N-{[trans-4-(7H-pyrrolo[3,2-e][1,2,3]triazolo[1,5-c]pyrimidin-1-yl)cyclohexyl]methyl}-2,2,3,3,3-pentafluoropropan-1-amine] | 0.0039 | 0.034 | 0.13 | 0.35
15 | OC(CNC[C@H]1CC[C@H](c2nnn3cnc4[nH]ccc4c23)CC1)C(F)(F)F (stereo partly drawn) [compound 343, 3-({[trans-4-(7H-pyrrolo[3,2-e][1,2,3]triazolo[1,5-c]pyrimidin-1-yl)cyclohexyl]methyl}amino)-1,1,1-trifluoropropan-2-ol] | 0.01 | 0.063 | 0.33 | 0.44
16 | c1cc2c(ncn3nnc([C@H]4CC[C@H](CNC5CSC5)CC4)c23)[nH]1 [compound 344, N-{[trans-4-(7H-pyrrolo[3,2-e][1,2,3]triazolo[1,5-c]pyrimidin-1-yl)cyclohexyl]methyl}thietan-3-amine] | 0.012 | 0.068 | 0.52 | 0.39
17 | CCS(=O)(=O)N1CCN(C[C@H]2CC[C@H](c3nnn4cnc5[nH]ccc5c34)CC2)CC1 [compound 345, 1-(trans-4-{[4-(ethylsulfonyl)piperazin-1-yl]methyl}cyclohexyl)-7H-pyrrolo[3,2-e][1,2,3]triazolo[1,5-c]pyrimidine] | 0.025 | 0.2 | > 1 | > 1
18 | O=C(NCC(O)(c1ccccc1)C(F)(F)F)[C@H]1CC[C@H](c2nnn3cnc4[nH]ccc4c23)CC1 (stereo partly drawn) [compound 346, trans-4-(7H-Pyrrolo[3,2-e][1,2,3]triazolo[1,5-c]pyrimidin-1-yl)-N-(3,3,3-trifluoro-2-hydroxy-2-phenylpropyl)cyclohexanecarboxamide] | 0.0051 | 0.06 | > 1 | > 1
19 | NC(=O)[C@H]1CC[C@H](c2nnn3cnc4[nH]ccc4c23)CC1 [compound 348, trans-4-(7H-pyrrolo[3,2-e][1,2,3]triazolo[1,5-c]pyrimidin-1-yl)cyclohexanecarboxamide] | 0.0099 | 0.051 | 0.75 | 0.29
20 | Cc1ccc(CNC(=O)[C@H]2CC[C@H](c3nnn4cnc5[nH]ccc5c34)CC2)o1 [compound 349, trans-N-[(5-methylfuran-2-yl)methyl]-4-(7H-pyrrolo[3,2-e][1,2,3]triazolo[1,5-c]pyrimidin-1-yl)cyclohexanecarboxamide] | 0.0059 | 0.048 | > 1 | 0.25
21 | N#CC(NC(=O)[C@H]1CC[C@H](c2nnn3cnc4[nH]ccc4c23)CC1)c1ccccc1 (stereo partly drawn) [compound 351, trans-N-[cyano(phenyl)methyl]-4-(7H-pyrrolo[3,2-e][1,2,3]triazolo[1,5-c]pyrimidin-1-yl)cyclohexanecarboxamide] | 0.012 | 0.089 | > 1 | > 1
22 | O=C(NCCc1ccc(Cl)cc1)[C@H]1CC[C@H](c2nnn3cnc4[nH]ccc4c23)CC1 [compound 352, trans-N-(4-chlorophenethyl)-4-(7H-pyrrolo[3,2-e][1,2,3]triazolo[1,5-c]pyrimidin-1-yl)cyclohexanecarboxamide] | 0.005 | 0.029 | > 1 | > 1
23 | O=C(NC[C@@H](O)c1ccccc1)[C@H]1CC[C@H](c2nnn3cnc4[nH]ccc4c23)CC1 [compound 353, trans-N-[(S)-2-hydroxy-2-phenylethyl]-4-(7H-pyrrolo[3,2-e][1,2,3]triazolo[1,5-c]pyrimidin-1-yl)cyclohexanecarboxamide] | 0.0029 | 0.031 | 0.35 | 0.46
24 | N#CCNC(=O)[C@H]1CC[C@H](c2nnn3cnc4[nH]ccc4c23)CC1 [compound 355, trans-N-(cyanomethyl)-4-(7H-pyrrolo[3,2-e][1,2,3]triazolo[1,5-c]pyrimidin-1-yl)cyclohexanecarboxamide] | 0.0042 | 0.033 | > 1 | 0.15
25 | N#CCCNC(=O)[C@H]1CC[C@H](c2nnn3cnc4[nH]ccc4c23)CC1 [compound 356, trans-N-(2-cyanoethyl)-4-(7H-pyrrolo[3,2-e][1,2,3]triazolo[1,5-c]pyrimidin-1-yl)cyclohexanecarboxamide] | 0.0036 | 0.036 | > 1 | 0.16
26 | N#C[C@H]1CCN(C(=O)[C@H]2CC[C@H](c3nnn4cnc5[nH]ccc5c34)CC2)C1 [compound 357, (S)-1-[trans-4-(7H-pyrrolo[3,2-e][1,2,3]triazolo[1,5-c]pyrimidin-1-yl)cyclohexanecarbonyl]pyrrolidine-3-carbonitrile] | 0.067 | 0.33 | > 1 | 0.87
